Results: patent US20240051985A1, “METTL3 MODULATORS” (ACCENT THERAPEUTICS, INC., priority 2020, published 2024)

Tests used:
PRMT5-MEP50 = PRMT5-MEP50 (Homo sapiens, UniProt O14744); assay: PRMT5 assay (3H-SAM flashplate); settings: Table 4; PRMT5 biochemical assay
Method: Assays were performed in a 25 μl-volume in 384-well V-bottom polypropylene microplates (Greiner Bio-One, cat. No. 781280) at ambient temperature. Optimized 1× assay buffer was 20 mM Tris-HCl pH 8.0, 1 mM DTT, […]. For compound screening PRMT5-MEP50 (final concentration, f.c.=2.5 nM) was added using a Multidrop Combi (ThermoFisher Scientific, Waltham, MA) and preincubated for 5 min. Reactions were started by adding 3′ biotinylated histone H4 peptide acetylated on serine 1 (Ac-[…]-Biotin) (f.c.=100 nM) and 3H-SAM (f.c.=250 nM) substrates. Reactions proceeded for 60 minutes and were quenched with excess non-radioactive SAM (f.c.=15 μM). The reactions were then transferred to streptavidin-coated flashplates and incubated for 2 hours at 25° C. Following two washing cycles with 0.1% Tween-20, the plates were sealed and read on a TopCount (PerkinElmer, Waltham, MA) plate-based scintillation counter. For determination of kinetic parameters, reaction times were optimized so that measurements were taken during the initial velocity phase of the reaction.

FLT3 = biological target: T1, FLT3 (Homo sapiens, UniProt P36888); assay: FLT3 Caliper assay; type: biochemical; settings: Table 4; read-out: FLT3 Calipher assay IC50
T1 sequence (P36888 27-993): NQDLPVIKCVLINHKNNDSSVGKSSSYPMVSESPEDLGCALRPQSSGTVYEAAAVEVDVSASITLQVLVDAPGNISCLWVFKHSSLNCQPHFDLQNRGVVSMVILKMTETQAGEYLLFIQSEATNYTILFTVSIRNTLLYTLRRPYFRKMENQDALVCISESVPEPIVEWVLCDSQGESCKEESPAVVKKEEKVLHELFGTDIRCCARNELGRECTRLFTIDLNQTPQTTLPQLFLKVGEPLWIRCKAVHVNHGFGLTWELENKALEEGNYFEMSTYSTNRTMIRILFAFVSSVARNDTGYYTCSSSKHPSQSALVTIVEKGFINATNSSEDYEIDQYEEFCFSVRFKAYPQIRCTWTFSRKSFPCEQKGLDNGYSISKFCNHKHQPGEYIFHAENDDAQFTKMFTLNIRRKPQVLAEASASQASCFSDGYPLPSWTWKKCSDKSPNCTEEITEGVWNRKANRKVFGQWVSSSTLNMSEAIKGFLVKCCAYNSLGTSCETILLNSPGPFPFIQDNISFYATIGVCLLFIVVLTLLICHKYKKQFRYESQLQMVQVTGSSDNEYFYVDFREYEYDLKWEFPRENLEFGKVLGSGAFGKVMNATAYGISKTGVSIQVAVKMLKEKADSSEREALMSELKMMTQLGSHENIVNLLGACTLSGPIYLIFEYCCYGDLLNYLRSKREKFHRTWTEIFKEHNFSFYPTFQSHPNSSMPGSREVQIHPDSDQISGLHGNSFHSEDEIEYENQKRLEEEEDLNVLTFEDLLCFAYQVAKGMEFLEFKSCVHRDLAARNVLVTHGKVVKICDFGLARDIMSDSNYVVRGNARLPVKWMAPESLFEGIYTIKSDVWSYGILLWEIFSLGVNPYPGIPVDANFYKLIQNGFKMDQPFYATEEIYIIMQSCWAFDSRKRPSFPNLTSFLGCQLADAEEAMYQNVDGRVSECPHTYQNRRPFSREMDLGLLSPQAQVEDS
Method: (§1) FLT3/FLT3-ITD Caliper Assays
(§2) Assays were performed in a 20 μl-volume in 384-well polypropylene microplates (Perkin Elmer Proxiplate, cat. No. 6059480) at ambient temperature. Optimized 1× assay buffer was 50 mM Hepes pH 7.5, 2 mM DTT, 0.01% Tween, 0.01% BSA, 10 mM MgCl2. For compound screening FLT3 (final concentration, f.c.=0.9 nM) or FLT3-ITD (f.c.=7 nM) was added using a Multidrop Combi (ThermoFisher Scientific, Waltham, MA) and preincubated for 10 min. Reactions were started by adding fluorescein-peptide (sequence 5-FAM-EAIYAAPFAKKK-CONH2) (f.c.=300 μM) and ATP (FLT3 f.c.=97 μM FLT3-ITD f.c.=146 μM) substrates. Reactions proceeded for 60 minutes. The reactions were stopped with LabChip ProfilerPro Separation Buffer containing EDTA (f.c.=20 mM). The plates were read on a Caliper microfluidics reader (PerkinElmer, Waltham, MA).

FLT3-ITD = biological target: T2, FLT3-ITD (Homo sapiens, UniProt P36888); assay: FLT3-ITD Caliper assay; type: biochemical; settings: Table 4; read-out: FLT3-ITD Calipher assay IC50
T2 sequence (P36888 1-993): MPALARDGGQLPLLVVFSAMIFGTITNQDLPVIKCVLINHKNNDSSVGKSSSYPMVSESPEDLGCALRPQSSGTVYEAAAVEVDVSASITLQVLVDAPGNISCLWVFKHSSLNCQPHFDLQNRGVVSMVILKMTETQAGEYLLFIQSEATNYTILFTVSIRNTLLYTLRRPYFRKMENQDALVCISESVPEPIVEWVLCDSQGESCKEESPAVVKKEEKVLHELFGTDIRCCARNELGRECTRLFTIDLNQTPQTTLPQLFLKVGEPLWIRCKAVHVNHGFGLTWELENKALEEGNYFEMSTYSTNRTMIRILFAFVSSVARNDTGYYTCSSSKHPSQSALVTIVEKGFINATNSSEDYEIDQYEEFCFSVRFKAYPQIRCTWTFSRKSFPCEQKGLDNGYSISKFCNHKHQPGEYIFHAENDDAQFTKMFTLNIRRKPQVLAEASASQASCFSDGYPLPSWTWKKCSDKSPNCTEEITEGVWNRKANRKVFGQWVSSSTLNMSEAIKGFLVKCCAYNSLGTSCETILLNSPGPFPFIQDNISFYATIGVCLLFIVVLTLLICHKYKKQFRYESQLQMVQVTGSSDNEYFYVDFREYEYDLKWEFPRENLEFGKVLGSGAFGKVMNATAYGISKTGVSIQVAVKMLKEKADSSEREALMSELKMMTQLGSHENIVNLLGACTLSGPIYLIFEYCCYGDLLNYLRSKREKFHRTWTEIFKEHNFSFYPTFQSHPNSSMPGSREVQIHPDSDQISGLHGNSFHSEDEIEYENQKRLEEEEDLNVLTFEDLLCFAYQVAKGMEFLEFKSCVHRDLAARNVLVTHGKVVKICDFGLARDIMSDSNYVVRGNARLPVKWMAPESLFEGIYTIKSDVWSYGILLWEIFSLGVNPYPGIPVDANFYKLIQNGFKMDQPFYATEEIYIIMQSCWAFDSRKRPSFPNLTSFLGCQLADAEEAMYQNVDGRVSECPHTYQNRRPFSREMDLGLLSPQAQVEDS
Method: as §1, §2

METTL3/METTL14 = METTL3/METTL14 (Homo sapiens, UniProt Q86U44); assay: METTL3-14 standard enzyme assay (3H-SAM flashplate); settings: Table 4; METTL3 biochemical assay
Summary of the method: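 METTL3/METTL14 (2.5 nM) preincubated 5 min, then reacted with 3′-biotinylated RNA UCUGGACUAAA (100 nM) and 3H-SAM (100 nM) for 30 min at ambient temperature in 20 mM HEPES pH 7.5, 50 mM KCl, 250 μM MgCl2, 1 mM DTT. Quenched with 15 μM cold SAM; product captured on streptavidin flashplates, scintillation counted.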

PRMT5-MEP50, sequence (O14744 whole entry): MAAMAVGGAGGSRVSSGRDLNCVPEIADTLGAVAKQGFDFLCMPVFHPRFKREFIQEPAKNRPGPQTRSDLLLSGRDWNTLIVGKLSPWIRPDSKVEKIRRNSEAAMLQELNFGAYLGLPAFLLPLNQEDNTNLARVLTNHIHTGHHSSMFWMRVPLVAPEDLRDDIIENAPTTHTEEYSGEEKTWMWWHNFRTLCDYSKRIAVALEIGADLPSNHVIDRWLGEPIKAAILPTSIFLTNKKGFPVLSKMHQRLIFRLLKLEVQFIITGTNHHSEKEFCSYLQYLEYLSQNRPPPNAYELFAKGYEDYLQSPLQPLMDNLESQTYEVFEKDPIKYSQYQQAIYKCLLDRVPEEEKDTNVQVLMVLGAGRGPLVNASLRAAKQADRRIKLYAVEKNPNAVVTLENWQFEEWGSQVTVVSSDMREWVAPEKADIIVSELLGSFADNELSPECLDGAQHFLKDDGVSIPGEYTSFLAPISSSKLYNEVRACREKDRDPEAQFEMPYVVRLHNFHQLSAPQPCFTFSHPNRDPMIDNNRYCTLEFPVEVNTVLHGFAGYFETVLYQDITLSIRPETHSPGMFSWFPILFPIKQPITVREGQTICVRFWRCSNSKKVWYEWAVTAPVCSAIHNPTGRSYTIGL
PRMT5-MEP50, sequence (Q9BQA1 whole entry partner): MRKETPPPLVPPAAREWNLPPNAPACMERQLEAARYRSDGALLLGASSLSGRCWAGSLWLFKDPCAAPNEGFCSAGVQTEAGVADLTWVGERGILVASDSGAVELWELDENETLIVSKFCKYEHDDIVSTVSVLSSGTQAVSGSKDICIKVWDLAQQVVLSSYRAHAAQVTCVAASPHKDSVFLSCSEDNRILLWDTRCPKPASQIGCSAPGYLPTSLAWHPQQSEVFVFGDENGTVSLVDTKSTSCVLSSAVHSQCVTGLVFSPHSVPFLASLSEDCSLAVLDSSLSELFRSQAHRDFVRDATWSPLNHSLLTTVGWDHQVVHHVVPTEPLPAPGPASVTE
METTL3/METTL14, sequence (Q86U44 whole entry, species assumed): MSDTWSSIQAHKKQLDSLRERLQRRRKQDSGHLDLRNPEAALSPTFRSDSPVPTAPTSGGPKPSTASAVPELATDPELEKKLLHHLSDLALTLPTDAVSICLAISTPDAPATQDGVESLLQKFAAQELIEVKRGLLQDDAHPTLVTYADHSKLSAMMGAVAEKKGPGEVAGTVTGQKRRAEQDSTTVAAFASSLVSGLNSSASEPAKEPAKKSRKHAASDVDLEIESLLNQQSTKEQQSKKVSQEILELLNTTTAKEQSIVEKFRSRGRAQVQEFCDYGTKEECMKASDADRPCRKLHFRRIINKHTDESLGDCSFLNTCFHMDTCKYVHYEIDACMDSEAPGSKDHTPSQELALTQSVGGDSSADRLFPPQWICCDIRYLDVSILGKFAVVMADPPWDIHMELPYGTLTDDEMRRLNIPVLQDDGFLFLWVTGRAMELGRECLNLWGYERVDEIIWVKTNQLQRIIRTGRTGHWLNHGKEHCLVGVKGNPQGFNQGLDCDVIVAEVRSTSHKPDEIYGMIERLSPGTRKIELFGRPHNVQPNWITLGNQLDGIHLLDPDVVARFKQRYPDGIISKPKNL
METTL3/METTL14, sequence (Q9HCE5 whole entry partner, species assumed): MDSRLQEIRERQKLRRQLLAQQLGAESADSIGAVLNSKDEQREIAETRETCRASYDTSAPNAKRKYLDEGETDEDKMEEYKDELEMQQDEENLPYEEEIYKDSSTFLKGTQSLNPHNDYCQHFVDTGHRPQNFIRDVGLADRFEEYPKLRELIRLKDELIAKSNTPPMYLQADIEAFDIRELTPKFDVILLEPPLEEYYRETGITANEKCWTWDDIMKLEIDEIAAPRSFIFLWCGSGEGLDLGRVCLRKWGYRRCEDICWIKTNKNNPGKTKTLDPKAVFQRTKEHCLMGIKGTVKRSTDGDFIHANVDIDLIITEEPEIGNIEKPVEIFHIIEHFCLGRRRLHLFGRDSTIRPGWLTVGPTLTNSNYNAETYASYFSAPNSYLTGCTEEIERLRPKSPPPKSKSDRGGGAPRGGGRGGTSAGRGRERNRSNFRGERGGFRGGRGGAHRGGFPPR

IC50 (PRMT5-MEP50)	IC50 (FLT3)	IC50 (FLT3-ITD)	IC50 (METTL3/METTL14)	Structure (SMILES)
≥ 1000 nM	≥ 1000 nM	≥ 1000 nM	10 to 100 nM	Nc1ncnc2c1ccn2[C@@H]1O[C@H](C(=O)Nc2ccc3ccc(N4CCC4)nc3c2)[C@@H](O)[C@@H]1F [Compound I-34, (2S,3R,4S,5R)-5-{4-amino-7H-pyrrolo[2,3-d]pyrimidin-7-yl}-N-[2-(azetidin-1-yl)quinolin-7-yl]-4-fluoro-3-hydroxyoxolane-2-carboxamide]
10 to 100 nM	≥ 1000 nM	≥ 1000 nM	100 to 1000 nM	Cn1ccc(-c2cn([C@@H]3O[C@H](C(=O)NCC4(O)CCNCC4)[C@@H](O)[C@H]3O)c3ncnc(N)c23)n1 [Compound I-198]
10 to 100 nM	≥ 1000 nM	≥ 1000 nM	100 to 1000 nM	Cn1ccc(-c2cn([C@@H]3O[C@H](C(=O)Nc4cccnc4)[C@@H](O)[C@H]3O)c3ncnc(N)c23)n1 [Compound I-156]
100 to 1000 nM	≥ 1000 nM	≥ 1000 nM	≥ 1000 nM	Cn1ccc(-c2cn([C@@H]3O[C@H](C(=O)Nc4cc(F)cc(F)c4)[C@@H](O)[C@H]3O)c3ncnc(N)c23)n1 [Compound I-158]
≥ 1000 nM	≥ 1000 nM	≥ 1000 nM	100 to 1000 nM	Cn1ccc(-c2cn([C@@H]3O[C@H](C(=O)N[C@H]4CCc5nc(N)sc5C4)[C@@H](O)[C@H]3O)c3ncnc(N)c23)n1 [Compound I-197]
≥ 1000 nM	≥ 1000 nM	≥ 1000 nM	≥ 1000 nM	Cn1ccc(-c2cn([C@@H]3O[C@H](C(=O)N[C@H]4CCC(=O)NC4)[C@@H](O)[C@H]3O)c3ncnc(N)c23)n1 [Compound I-179]
≥ 1000 nM	≥ 1000 nM	≥ 1000 nM	≥ 1000 nM	CC(=O)N1CCC(NC(=O)[C@H]2O[C@@H](n3cc(-c4ccn(C)n4)c4c(N)ncnc43)[C@H](O)[C@@H]2O)CC1 [Compound I-37]
100 to 1000 nM	≥ 1000 nM	≥ 1000 nM	100 to 1000 nM	Cn1ccc(-c2cn([C@@H]3O[C@H](C(=O)NCc4cc(F)cc(F)c4)[C@@H](O)[C@H]3O)c3ncnc(N)c23)n1 [Compound I-191]
100 to 1000 nM	≥ 1000 nM	≥ 1000 nM	100 to 1000 nM	Cn1ccc(-c2cn([C@@H]3O[C@H](C(=O)NC4CCc5nc(N)sc5C4)[C@@H](O)[C@H]3O)c3ncnc(N)c23)n1 (stereo in doubt) [Compound I-161]
≥ 1000 nM	≥ 1000 nM	≥ 1000 nM	≥ 1000 nM	CC(=O)N1CCC(CNC(=O)[C@H]2O[C@@H](n3cc(-c4ccn(C)n4)c4c(N)ncnc43)[C@H](O)[C@@H]2O)CC1 [Compound I-227]
≥ 1000 nM	≥ 1000 nM	≥ 1000 nM	≥ 1000 nM	Cn1ccc(-c2cn([C@@H]3O[C@H](C(=O)Nc4ccon4)[C@@H](O)[C@H]3O)c3ncnc(N)c23)n1 [Compound I-171]
100 to 1000 nM	≥ 1000 nM	≥ 1000 nM	≥ 1000 nM	COc1cccc(NC(=O)[C@H]2O[C@@H](n3cc(-c4ccn(C)n4)c4c(N)ncnc43)[C@H](O)[C@@H]2O)c1 [Compound I-157]
100 to 1000 nM	≥ 1000 nM	≥ 1000 nM	100 to 1000 nM	COCCNc1ccnc(NC(=O)[C@H]2O[C@@H](n3cc(-c4ccn(C)n4)c4c(N)ncnc43)[C@H](O)[C@@H]2O)c1 [Compound I-165]
100 to 1000 nM	100 to 1000 nM	100 to 1000 nM	10 to 100 nM	N#Cc1cn([C@@H]2O[C@H](C(=O)Nc3ccc4ccc(N5CCC5)nc4c3)[C@@H](O)[C@H]2O)c2ncnc(N)c12 [Compound I-52, (2S,3S,4R,5R)-5-{4-amino-5-cyano-7H-pyrrolo[2,3-d]pyrimidin-7-yl}-N-[2-(azetidin-1-yl)quinolin-7-yl]-3,4-dihydroxyoxolane-2-carboxamide]
100 to 1000 nM	≥ 1000 nM	≥ 1000 nM	≥ 1000 nM	CCNc1ccnc(NC(=O)[C@H]2O[C@@H](n3cc(-c4ccn(C)n4)c4c(N)ncnc43)[C@H](O)[C@@H]2O)n1 [Compound I-36]
10 to 100 nM	≥ 1000 nM	≥ 1000 nM	≥ 1000 nM	Cn1ccc(-c2cn([C@@H]3O[C@H](C(=O)NCCc4cccnc4)[C@@H](O)[C@H]3O)c3ncnc(N)c23)n1 [Compound I-160]
	≥ 1000 nM	≥ 1000 nM	100 to 1000 nM	Cn1ccc(-c2cn([C@@H]3O[C@H](C(=O)Nc4ccccc4)[C@@H](O)[C@H]3O)c3ncnc(N)c23)n1 [Compound I-173]
100 to 1000 nM	≥ 1000 nM	≥ 1000 nM	100 to 1000 nM	COc1cccc(CNC(=O)[C@H]2O[C@@H](n3cc(-c4ccn(C)n4)c4c(N)ncnc43)[C@H](O)[C@@H]2O)c1 [Compound I-40]
100 to 1000 nM	≥ 1000 nM	≥ 1000 nM	100 to 1000 nM	Cn1ccc(-c2cn([C@@H]3O[C@H](C(=O)N4CCNCC4)[C@@H](O)[C@H]3O)c3ncnc(N)c23)n1 [Compound I-176]
